ChEMBL document CHEMBL3044736, “Synthesis, characterization, solvatochromic properties, and antimicrobial evaluation of 5-acetyl-2-thioxo-dihydro-pyrimidine-4,6-dione-based chalcones” (2013)
Converted amounts (≈) assume the structure as drawn.

Assays:
Format in all cases: functional
[1] = system: Penicillium; assay: Antimicrobial activity against Penicillium wild strain assessed as diameter of growth inhibition zone at 250 ug/ml after 48-96 hr by agar cup diffusion method; settings: read-out: DIZ
[2] = system: Penicillium; assay: Antimicrobial activity against Penicillium wild strain assessed as diameter of growth inhibition zone at 100 ug/ml after 48-96 hr by agar cup diffusion method; settings: read-out: DIZ
[3] = system: Trichophyton rubrum; assay: Antimicrobial activity against Trichophyton rubrum MTCC 296 assessed as diameter of growth inhibition zone at 100 ug/ml after 48-96 hr by agar cup diffusion method; settings: read-out: DIZ
[4] = system: Aspergillus clavatus; assay: Antimicrobial activity against Aspergillus clavatus MTCC 1323 assessed as diameter of growth inhibition zone at 100 ug/ml after 48-96 hr by agar cup diffusion method; settings: read-out: DIZ
[5] = system: Candida albicans; assay: Antimicrobial activity against Candida albicans MTCC 227 assessed as diameter of growth inhibition zone at 100 ug/ml after 48-96 hr by agar cup diffusion method; settings: read-out: DIZ
[6] = system: Penicillium; assay: Antimicrobial activity against Penicillium wild strain assessed as diameter of growth inhibition zone at 50 ug/ml after 48-96 hr by agar cup diffusion method; settings: read-out: DIZ
[7] = system: Trichophyton rubrum; assay: Antimicrobial activity against Trichophyton rubrum MTCC 296 assessed as diameter of growth inhibition zone at 50 ug/ml after 48-96 hr by agar cup diffusion method; settings: read-out: DIZ
[8] = system: Aspergillus clavatus; assay: Antimicrobial activity against Aspergillus clavatus MTCC 1323 assessed as diameter of growth inhibition zone at 50 ug/ml after 48-96 hr by agar cup diffusion method; settings: read-out: DIZ
[9] = system: Candida albicans; assay: Antimicrobial activity against Candida albicans MTCC 227 assessed as diameter of growth inhibition zone at 50 ug/ml after 48-96 hr by agar cup diffusion method; settings: read-out: DIZ
[10] = system: Penicillium; assay: Antimicrobial activity against Penicillium wild strain assessed as diameter of growth inhibition zone at 25 ug/ml after 48-96 hr by agar cup diffusion method; settings: read-out: DIZ
[11] = system: Trichophyton rubrum; assay: Antimicrobial activity against Trichophyton rubrum MTCC 296 assessed as diameter of growth inhibition zone at 25 ug/ml after 48-96 hr by agar cup diffusion method; settings: read-out: DIZ
[12] = system: Aspergillus clavatus; assay: Antimicrobial activity against Aspergillus clavatus MTCC 1323 assessed as diameter of growth inhibition zone at 25 ug/ml after 48-96 hr by agar cup diffusion method; settings: read-out: DIZ
[13] = system: Candida albicans; assay: Antimicrobial activity against Candida albicans MTCC 227 assessed as diameter of growth inhibition zone at 25 ug/ml after 48-96 hr by agar cup diffusion method; settings: read-out: DIZ
[14] = system: Penicillium; assay: Antimicrobial activity against Penicillium wild strain by agar cup diffusion method
[15] = system: Aspergillus clavatus; assay: Antimicrobial activity against Aspergillus clavatus MTCC 1323 by agar cup diffusion method
[16] = system: Pseudomonas aeruginosa; assay: Antimicrobial activity against Pseudomonas aeruginosa MTCC 1688 assessed as diameter of growth inhibition zone at 25 ug/ml after 18-24 hr by agar cup diffusion method; settings: read-out: DIZ
[17] = system: Escherichia coli; assay: Antimicrobial activity against Escherichia coli MTCC 443 assessed as diameter of growth inhibition zone at 25 ug/ml after 18-24 hr by agar cup diffusion method; settings: read-out: DIZ
[18] = system: Staphylococcus aureus; assay: Antimicrobial activity against Staphylococcus aureus MTCC 96 assessed as diameter of growth inhibition zone at 25 ug/ml after 18-24 hr by agar cup diffusion method; settings: read-out: DIZ
[19] = system: Streptococcus pyogenes; assay: Antimicrobial activity against Streptococcus pyogenes MTCC 442 assessed as diameter of growth inhibition zone at 25 ug/ml after 18-24 hr by agar cup diffusion method; settings: read-out: DIZ
[20] = system: Klebsiella pneumoniae; assay: Antimicrobial activity against Klebsiella pneumoniae MTCC 109 by agar cup diffusion method
[21] = system: Escherichia coli; assay: Antimicrobial activity against Escherichia coli MTCC 443 by agar cup diffusion method
[22] = system: Pseudomonas aeruginosa; assay: Antimicrobial activity against Pseudomonas aeruginosa MTCC 1688 by agar cup diffusion method
[23] = system: Staphylococcus aureus; assay: Antimicrobial activity against Staphylococcus aureus MTCC 96 by agar cup diffusion method
[24] = system: Streptococcus pyogenes; assay: Antimicrobial activity against Streptococcus pyogenes MTCC 442 by agar cup diffusion method
[25] = system: Trichophyton rubrum; assay: Antimicrobial activity against Trichophyton rubrum MTCC 296 by agar cup diffusion method
[26] = system: Candida albicans; assay: Antimicrobial activity against Candida albicans MTCC 227 by agar cup diffusion method
[27] = system: Klebsiella pneumoniae; assay: Antimicrobial activity against Klebsiella pneumoniae MTCC 109 assessed as diameter of growth inhibition zone at 250 ug/ml after 18-24 hr by agar cup diffusion method; settings: read-out: DIZ
[28] = system: Pseudomonas aeruginosa; assay: Antimicrobial activity against Pseudomonas aeruginosa MTCC 1688 assessed as diameter of growth inhibition zone at 250 ug/ml after 18-24 hr by agar cup diffusion method; settings: read-out: DIZ
[29] = system: Escherichia coli; assay: Antimicrobial activity against Escherichia coli MTCC 443 assessed as diameter of growth inhibition zone at 250 ug/ml after 18-24 hr by agar cup diffusion method; settings: read-out: DIZ
[30] = system: Staphylococcus aureus; assay: Antimicrobial activity against Staphylococcus aureus MTCC 96 assessed as diameter of growth inhibition zone at 250 ug/ml after 18-24 hr by agar cup diffusion method; settings: read-out: DIZ
[31] = system: Streptococcus pyogenes; assay: Antimicrobial activity against Streptococcus pyogenes MTCC 442 assessed as diameter of growth inhibition zone at 250 ug/ml after 18-24 hr by agar cup diffusion method; settings: read-out: DIZ
[32] = system: Klebsiella pneumoniae; assay: Antimicrobial activity against Klebsiella pneumoniae MTCC 109 assessed as diameter of growth inhibition zone at 100 ug/ml after 18-24 hr by agar cup diffusion method; settings: read-out: DIZ
[33] = system: Pseudomonas aeruginosa; assay: Antimicrobial activity against Pseudomonas aeruginosa MTCC 1688 assessed as diameter of growth inhibition zone at 100 ug/ml after 18-24 hr by agar cup diffusion method; settings: read-out: DIZ
[34] = system: Escherichia coli; assay: Antimicrobial activity against Escherichia coli MTCC 443 assessed as diameter of growth inhibition zone at 100 ug/ml after 18-24 hr by agar cup diffusion method; settings: read-out: DIZ
[35] = system: Staphylococcus aureus; assay: Antimicrobial activity against Staphylococcus aureus MTCC 96 assessed as diameter of growth inhibition zone at 100 ug/ml after 18-24 hr by agar cup diffusion method; settings: read-out: DIZ
[36] = system: Streptococcus pyogenes; assay: Antimicrobial activity against Streptococcus pyogenes MTCC 442 assessed as diameter of growth inhibition zone at 100 ug/ml after 18-24 hr by agar cup diffusion method; settings: read-out: DIZ
[37] = system: Klebsiella pneumoniae; assay: Antimicrobial activity against Klebsiella pneumoniae MTCC 109 assessed as diameter of growth inhibition zone at 50 ug/ml after 18-24 hr by agar cup diffusion method; settings: read-out: DIZ
[38] = system: Pseudomonas aeruginosa; assay: Antimicrobial activity against Pseudomonas aeruginosa MTCC 1688 assessed as diameter of growth inhibition zone at 50 ug/ml after 18-24 hr by agar cup diffusion method; settings: read-out: DIZ
[39] = system: Escherichia coli; assay: Antimicrobial activity against Escherichia coli MTCC 443 assessed as diameter of growth inhibition zone at 50 ug/ml after 18-24 hr by agar cup diffusion method; settings: read-out: DIZ
[40] = system: Staphylococcus aureus; assay: Antimicrobial activity against Staphylococcus aureus MTCC 96 assessed as diameter of growth inhibition zone at 50 ug/ml after 18-24 hr by agar cup diffusion method; settings: read-out: DIZ
[41] = system: Streptococcus pyogenes; assay: Antimicrobial activity against Streptococcus pyogenes MTCC 442 assessed as diameter of growth inhibition zone at 50 ug/ml after 18-24 hr by agar cup diffusion method; settings: read-out: DIZ
[42] = system: Klebsiella pneumoniae; assay: Antimicrobial activity against Klebsiella pneumoniae MTCC 109 assessed as diameter of growth inhibition zone at 25 ug/ml after 18-24 hr by agar cup diffusion method; settings: read-out: DIZ
[43] = system: Trichophyton rubrum; assay: Antimicrobial activity against Trichophyton rubrum MTCC 296 assessed as diameter of growth inhibition zone at 250 ug/ml after 48-96 hr by agar cup diffusion method; settings: read-out: DIZ
[44] = system: Aspergillus clavatus; assay: Antimicrobial activity against Aspergillus clavatus MTCC 1323 assessed as diameter of growth inhibition zone at 250 ug/ml after 48-96 hr by agar cup diffusion method; settings: read-out: DIZ
[45] = system: Candida albicans; assay: Antimicrobial activity against Candida albicans MTCC 227 assessed as diameter of growth inhibition zone at 250 ug/ml after 48-96 hr by agar cup diffusion method; settings: read-out: DIZ

O=C(/C=C/c1cccc([N+](=O)[O-])c1)C1C(=O)NC(=S)NC1=O
zone of inhibition at 250 µg/mL [1]: 22 mm
zone of inhibition at 100 µg/mL [2]: 21 mm
zone of inhibition at 100 µg/mL [3]: 22 mm
zone of inhibition at 100 µg/mL [4]: 22 mm
zone of inhibition at 100 µg/mL [5]: 23 mm
zone of inhibition at 50 µg/mL [6]: 20 mm
zone of inhibition at 50 µg/mL [7]: 21 mm
zone of inhibition at 50 µg/mL [8]: 22 mm
zone of inhibition at 50 µg/mL [9]: 22 mm
zone of inhibition at 25 µg/mL [10]: 18 mm
zone of inhibition at 25 µg/mL [11]: 18 mm
zone of inhibition at 25 µg/mL [12]: 20 mm
zone of inhibition at 25 µg/mL [13]: 21 mm
MFC [14]: 1000 µg/mL (≈ 3130 µM)
MIC [14]: 1000 µg/mL (≈ 3130 µM)
MFC [15]: 1000 µg/mL (≈ 3130 µM)
MIC [15]: 1000 µg/mL (≈ 3130 µM)
zone of inhibition at 25 µg/mL [16]: 14 mm
zone of inhibition at 25 µg/mL [17]: 15 mm
zone of inhibition at 25 µg/mL [18]: 14 mm
zone of inhibition at 25 µg/mL [19]: 15 mm
MBC [20]: 100 µg/mL (≈ 313 µM)
MIC [20]: 62.5 µg/mL (≈ 196 µM)
MBC [21]: 100 µg/mL (≈ 313 µM)
MIC [21]: 100 µg/mL (≈ 313 µM)
MBC [22]: 200 µg/mL (≈ 626 µM)
MIC [22]: 125 µg/mL (≈ 391 µM)
MBC [23]: 250 µg/mL (≈ 783 µM)
MIC [23]: 200 µg/mL (≈ 626 µM)
MBC [24]: 250 µg/mL (≈ 783 µM)
MIC [24]: 200 µg/mL (≈ 626 µM)
MFC [25]: 1000 µg/mL (≈ 3130 µM)
MIC [25]: 1000 µg/mL (≈ 3130 µM)
MFC [26]: 1000 µg/mL (≈ 3130 µM)
MIC [26]: 1000 µg/mL (≈ 3130 µM)
zone of inhibition at 250 µg/mL [27]: 18 mm
zone of inhibition at 250 µg/mL [28]: 19 mm
zone of inhibition at 250 µg/mL [29]: 18 mm
zone of inhibition at 250 µg/mL [30]: 19 mm
zone of inhibition at 250 µg/mL [31]: 18 mm
zone of inhibition at 100 µg/mL [32]: 17 mm
zone of inhibition at 100 µg/mL [33]: 17 mm
zone of inhibition at 100 µg/mL [34]: 18 mm
zone of inhibition at 100 µg/mL [35]: 17 mm
zone of inhibition at 100 µg/mL [36]: 18 mm
zone of inhibition at 50 µg/mL [37]: 14 mm
zone of inhibition at 50 µg/mL [38]: 16 mm
zone of inhibition at 50 µg/mL [39]: 17 mm
zone of inhibition at 50 µg/mL [40]: 16 mm
zone of inhibition at 50 µg/mL [41]: 17 mm
zone of inhibition at 25 µg/mL [42]: 10 mm
zone of inhibition at 250 µg/mL [43]: 27 mm
zone of inhibition at 250 µg/mL [44]: 24 mm
zone of inhibition at 250 µg/mL [45]: 24 mm
